Experimental data as given in EPA's ToxValDB 9.5 (doi:10.2903/j.efsa.2010.1897).
≈ marks a conversion by molar mass, not a printed value. Where “and” joins values, the source holds several entries; their conditions need not be identical. Equal entries are not always repeated.

Legend:
[1] = tested on: Anas platyrhynchos; conditions: for LC50: short-term, feed
[2] = tested on: Apis mellifera; conditions: acute; duration: 48 hours; oral; unspecified; mortality
[3] = tested on: Colinus virginianus; conditions: for LC50: diet
[4] = tested on: Coturnix japonica; conditions: acute; oral; mortality
[5] = tested on: Cyprinodon variegatus; conditions: acute; duration: 96 hours; mortality
[6] = tested on: Daphnia magna; conditions: chronic/long-term; duration: 21 days
[7] = tested on: Folsomia candida; conditions: chronic/long-term; duration: 28 days; reproduction
[8] = tested on: Mus musculus
[9] = tested on: Oncorhynchus mykiss
[10] = tested on: Rattus norvegicus
[11] = tested on: Tagia sp.; conditions: acute; duration: 14 days; mortality
[12] = tested on: Typhlodromus pyri; assay: LR50; higher = less toxic; conditions: not reported; mortality

`CC(C1CC1)C(O)(Cn1cncn1)c1ccc(Cl)cc1` (stereo not drawn) [Cyproconazole] was tested, and the LD50 ([1]; acute, oral, unspecified, mortality) was greater than 2000 mg/kg-day, the NOEC ([1]; reproductive) was 1.4 mg/kg-day and 2.4 mg/kg-day and the LC50 ([1]; oral, mortality) was 151 mg/kg-day. The LD50 [2] was greater than 100 µg/piece, the LC50 ([3]; acute, oral, mortality) was 478 mg/kg-day and 585 mg/kg-day and the LD50 ([3]; acute, oral, mortality) was 94 mg/kg-day and 183 mg/kg-day. It also gave an NOEC ([3]; reproduction developmental) of 6.6 mg/kg-day, an LD50 [4] of 130 mg/kg-day and an LC50 [5] of 21 µg/mL (≈ 72 µM). It also gave an NOEC [6] of 0.023 mg/L, an NOEC [7] of 55.8 mg/kg and an LD50 ([8]; acute, oral, mortality) of 200 mg/kg-day. It also gave an NOAEL ([8]; chronic, duration: 18 months, body weight) of 1.84 mg/kg-day, an LC50 ([9]; acute, duration: 96 hours, mortality) of 19 µg/mL (≈ 65.1 µM) and an NOEC ([9]; chronic/long-term, duration: 89 days, growth) of 0.16 mg/L. For the same compound, the NOAEL ([10]; chronic, duration: 2 years, M/F, body weight) was 2.22 mg/kg-day, the NOAEL ([10]; reproduction developmental, F, reproduction) was 1.7 mg/kg-day and the NOAEL ([10]; reproduction developmental, M, organ weight) was 1.4 mg/kg-day. For the same compound, the LC50 [11] was greater than 335 mg/kg and the LR50 [12] was 29.4 g/ha.
Compound `NC(Cc1ncn[nH]1)C(=O)O` (stereo not drawn) [1,2,4-Triazole-3-alanine] has an LC50 ([1]; oral, mortality) greater than 1340 mg/kg-day, an LC50 ([3]; acute, oral, mortality) greater than 1400 mg/kg-day and an NOAEL ([10]; developmental, development) of 100 mg/kg-day.
